Measurements reported in patent publication US20260102472A1, “SEMAGLUTIDE IN MEDICAL THERAPY” (Novo Nordisk A/S, priority 2023, published 2026).

Tested on: human subjects with obesity-related heart failure with preserved ejection fraction, and type 2 diabetes
Assay: Randomised, double-blind, placebo-controlled clinical trial of semaglutide in obesity-related HFpEF and type 2 diabetes (Example 2)
Format: in vivo
Conditions: for Time to first HF event from randomisation leading to either hospitalisation or an urgent visit, Hazard ratio: Semaglutide 2.4 mg/placebo
Description: The Kansas City Cardiomyopathy Questionnaire (KCCQ) is a disease-specific health status instrument composed of 23 items that quantify the domains of physical limitation, symptoms, self-efficacy, social limitation, and health-related quality of life limitation from heart failure (available via cvoutcomes.org). The questions of the KCCQ are as published in the appendix of Green et al., JACC 2000; 35 (5): 1245-55:
The Kansas City Cardiomyopathy Questionnaire clinical summary score (KCCQ-CSS) is used for interpretation of the KCCQ and scores range from 0 to 100 where higher scores indicate better function. KCCQ-CSS is calculated as the mean of the available summary scores Physical Limitation Score and Total Symptom Score from the KCCQ. […] “Total Symptom Score” is calculated as the mean of the available summary scores Symptom Frequency Score and Symptom Burden Score. “Symptom Frequency Score” is calculated, if answer to at least two of Questions 3, 5, 7 and 9 are not missing, as 100*(mean of S3, S5, S7 and S9 answered), where S3=[(Question 3)−1]/4, S5=[(Question 5)−1]/6, S7=[(Question 7)−1]/6, and S9=[(Question 9)−1]/4; answers to Question 3 are scored as follows: Every morning=1, 3 or more times a week but not every day=2, 1-2 times a week=3, Less than once a week=4, Never over the past 2 weeks=5; answers to Questions 5 and 7 are scored as follows: All of the time=1, Several times a day=2, At least once a day=3, 3 or more times a week but not every day=4, 1-2 times a week=5, Less than once a week=6, or Never over the past 2 weeks=7; and answers to Question 9 are scored as follows: Every night=1, 3 or more times a week but not every day=2, 1-2 times a week=3, Less than once a week=4, or Never over the past 2 weeks=5. “Symptom Burden Score” is calculated, if answer to at least one of Questions 4, 6 and 8 is not missing, as 100*[(mean of Questions 4, 6 and 8 answered)−1]/4 where answers are scored as follows: Extremely bothersome=1, Quite a bit bothersome=2, Moderately bothersome=3, Slightly bothersome=4, Not at all bothersome=5, or I've had no swelling/fatigue/shortness of breath=5. The term “mean of questions answered” as used herein refers to that for a scale with n in questions where the subject must answer m to score the scale, but the subject answers only n-i, where n-i>=m, then the mean of those questions is calculated as (sum of answers to those n-i questions)/(n-i).
The six minute walk test (6MWT) is a determination of the distance a subject is able to walk over a period of six minutes where the subject traverses, at its own pace and resting as needed, back and forth along a marked walkway of 20 meters with the goal of walking as far as possible without running. The distance obtained from 6MWT is referred to as the six minute walk distance (6MWD). The 6MWT is a direct and timed measure of walking ability, which is technically simple and reproducible.
Heart failure exists in different degrees of severity. The most commonly used classification system of heart failure is the New York Heart Association Functional Classification (also referred to as “NYHA”). NYHA categorises subjects in one of four classes I-IV (Table A), based on their degree of limitation during physical activity, and optionally an additional subgroup A-D based on objective assessments, for further details see The Criteria Committee of the New York Heart Association. Nomenclature and Criteria for Diagnosis of Diseases of the Heart and Great Vessels. 9th ed. Boston, Mass: Little, Brown & Co; 1994:253-256.
A randomised, double-blind, international multicentre, placebo-controlled clinical trial with semaglutide was carried out with 616 human subjects with obesity-related heart failure with preserved ejection fraction, and type 2 diabetes. […]

[1] = pair-wise comparisons vs. placebo, 2.4 mg, type 2 diabetes
[2] = week 0, 2.4 mg once weekly, type 2 diabetes
[3] = week 20, 2.4 mg once weekly, type 2 diabetes
[4] = week 36, 2.4 mg once weekly, type 2 diabetes
[5] = week 52, 2.4 mg once weekly vs. placebo, type 2 diabetes
[6] = week 52, 2.4 mg once weekly vs. placebo, type 2 diabetes, listed as semaglutide
[7] = week 52, 2.4 mg once weekly, type 2 diabetes
[8] = week 52, 2.4 mg once weekly, type 2 diabetes, ANCOVA estimate

N-epsilon26-[2-(2-{2-[2-(2-{2-[(S)-4-Carboxy-4-(17-carboxyheptadecanoyl-amino) butyrylamino]ethoxy}ethoxy) acetylamino]ethoxy}ethoxy) acetyl] [Aib8,Arg34] GLP-1-(7-37) [Semaglutide]
Inflammation (HFpEF, obesity and type 2 diabetes, no data given): reduced inflammation | Time to first HF event from randomisation leading to either hospitalisation or an urgent visit, Hazard ratio (type 2 diabetes): 0.40 | Time to first HF event from randomisation leading to either hospitalisation or an urgent visit, Hazard ratio (type 2 diabetes, listed as semaglutide): risk of experiencing a heart failure event was less | Patients improved or with no change in NYHA class compared with placebo (baseline to 52 weeks, type 2 diabetes): more patients treated with semaglutide improved or observed no change in NYHA class | More wins on semaglutide as compared to placebo (hierarchical composite endpoint, type 2 diabetes): 59% | Hierarchical composite endpoint, Loss: All-cause death [1]: 1.9% | Hierarchical composite endpoint, Loss: Change in 6MWD ≥30 meters difference [1]: 4.1% | Hierarchical composite endpoint, Loss: Change in KCCQ-CSS ≥5 points difference [1]: 6.2% | Hierarchical composite endpoint, Loss: Change in KCCQ-CSS ≥10 points difference [1]: 5.0% | Hierarchical composite endpoint, Loss: Change in KCCQ-CSS ≥15 points difference [1]: 18.2% | Hierarchical composite endpoint, Loss: Number of HF events [1]: 1.2% | Hierarchical composite endpoint, Loss: Time-to-first HF event [1]: 0.0% | Hierarchical composite endpoint, Loss: Total [1]: 36.8% | Hierarchical composite endpoint, Proportion of ties [1]: Proportion of ties: 4.5% | Hierarchical composite endpoint, Wins: All-cause death [1]: 2.9% | Hierarchical composite endpoint, Wins: Change in 6MWD ≥30 meters difference [1]: 4.9% | Hierarchical composite endpoint, Wins: Change in KCCQ-CSS ≥5 points difference [1]: 7.3% | Hierarchical composite endpoint, Wins: Change in KCCQ-CSS ≥10 points difference [1]: 6.6% | Hierarchical composite endpoint, Wins: Change in KCCQ-CSS ≥15 points difference [1]: 32.3% | Hierarchical composite endpoint, Wins: Number of HF events [1]: 4.7% | Hierarchical composite endpoint, Wins: Time-to-first HF event [1]: 0.0% | Hierarchical composite endpoint, Wins: Total [1]: 58.7% | Observed KCCQ-CSS mean change from baseline [2]: 0 | Observed body weight (%) mean change from baseline [2]: 0% | Observed six minutes walk distance mean change from baseline [2]: 0 meters | Observed body weight (%) mean change from baseline (week 4, dose escalation to 2.4 mg once weekly, type 2 diabetes): −1.8% | Observed body weight (%) mean change from baseline (week 8, dose escalation to 2.4 mg once weekly, type 2 diabetes): −3.1% | Observed body weight (%) mean change from baseline (week 12, dose escalation to 2.4 mg once weekly, type 2 diabetes): −4.5% | Observed body weight (%) mean change from baseline (week 16, dose escalation to 2.4 mg once weekly, type 2 diabetes): −5.8% | Observed KCCQ-CSS mean change from baseline [3]: 11.1 | Observed body weight (%) mean change from baseline [3]: −6.6% | Observed six minutes walk distance mean change from baseline [3]: 23.0 meters | Observed body weight (%) mean change from baseline (week 28, 2.4 mg once weekly, type 2 diabetes): −8.0% | Observed KCCQ-CSS mean change from baseline [4]: 14.2 | Observed body weight (%) mean change from baseline [4]: −9.1% | Observed body weight (%) mean change from baseline (week 44, 2.4 mg once weekly, type 2 diabetes): −9.8% | Body weight (%) change from baseline to week 52, Treatment difference vs. placebo [5]: −6.4% | Improvement of ≥5 points in KCCQ-CSS, Treatment Odds ratio vs. placebo [5]: 2.29 | Improvement of ≥10 points in KCCQ-CSS, Treatment Odds ratio vs. placebo [5]: 2.06 | KCCQ-CSS change from baseline to week 52, Treatment difference vs. placebo [5]: 7.3 score | Six minutes walk distance change from baseline to week 52, Treatment difference vs. placebo [5]: 14.3 meters | Body weight (%) change from baseline to week 52, Treatment difference vs. placebo [6]: significantly larger body weight loss | KCCQ-CSS change from baseline to week 52, Treatment difference vs. placebo [6]: significantly larger improvement in KCCQ-CSS | Six minutes walk distance change from baseline to week 52, Treatment difference vs. placebo [6]: significantly larger improvement in six minutes walk distance | NYHA class from baseline to week 52: Improvement [7]: 33.9% | NYHA class from baseline to week 52: No change [7]: 63.7% | NYHA class from baseline to week 52: Worsening [7]: 2.4% | Observed KCCQ-CSS mean change from baseline [7]: 14.4 | Observed body weight (%) mean change from baseline [7]: −10.2% | Observed proportion improving ≥5 points from baseline in KCCQ-CSS [7]: 73% | Observed proportion improving ≥10 points from baseline in KCCQ-CSS [7]: 58% | Observed six minutes walk distance mean change from baseline [7]: 18.6 meters | Body weight (%) change from baseline to week 52, Estimate [8]: −9.8% | KCCQ-CSS change from baseline to week 52, Estimate [8]: 13.7 score | Six minutes walk distance change from baseline to week 52, Estimate [8]: 12.7 meters
